From patent publication US8722088B2, “Pharmaceutical compositions and methods for the treatment of prostate cancer” (Ferring International Center S.A., priority 2009, dated 2014)
Entries after “also recorded” stand apart in the source; their conditions may differ. Read-outs that look alike come from different tables or passages of the source. Where a SMILES comes first, the peptide text is derived from it. [ ]: non-standard residue; d: D form. The star is where a group is joined. dPhe(4-NHCONH2) = NC(=O)Nc1ccc(C[C@@H](N)C(=O)O)cc1; Dihydroorotyl(S) = O=C1C[C@@H](C(=O)*)NC(=O)N1; dPhe(4-Cl) = N[C@H](Cc1ccc(Cl)cc1)C(=O)O; Phe(4-NH2) = Nc1ccc(C[C@H](N)C(=O)O)cc1; d2Nal = N[C@H](Cc1ccc2ccccc2c1)C(=O)O; Lys(iPr) = CC(C)NCCCC[C@H](N)C(=O)O; d3Pal = N[C@H](Cc1cccnc1)C(=O)O

Assays:
[1] = human, in vivo
Description: At the data cut-off date (i.e., seven months after commence of the clinical trial), 133 patients with prostate cancer were exposed to degarelix in the Phase 2, three-month dosing regimen clinical program (CS18).

[2] = male, human, in vivo, sc
Description: (§1) The present study included a starting degarelix dose of 240 mg (with a concentration of 40 mg/mL of solvent), followed by maintenance doses of degarelix: i.e., 360 mg (with a concentration of 60 mg/mL of solvent) or 480 mg (with a concentration of 60 mg/mL of solvent), the latter administered at Months 1, 4, 7, and 10.
(§2) The study was open labeled and patients received a starting dose of 240 mg (with a concentration of 40 mg/mL of solvent) at Month 0 followed by one of two degarelix maintenance dose treatment regimens: 360 mg (with a concentration of 60 mg/mL of solvent) at Months 1, 4, 7, and 10; or 480 mg (with a concentration of 60 mg/mL of solvent) at Months 1, 4, 7, and 10.
(§3) The starting dose was administered subcutaneously as two injections of 120 mg (with a concentration of 40 mg/ml of solvent, given as 2×3 mL injections). After 28 days a maintenance dose of 360 mg (with a concentration of 60 mg/mL, given as 2×3 mL injections) or 480 mg (with a concentration of 60 mg/mL, given as 2×4 mL injections) was administered, also in two injections (each of 240 mg). Thereafter, with three monthly intervals, maintenance doses were given, again in the form of two injections. […] At each visit, serum testosterone, prostate specific androgen (PSA), and plasma concentration of degarelix were measured by techniques well known in the art.

serum testosterone [3] = assay: Previous studies, population PK/PD: proportion of patients with serum testosterone ≦0.5 ng/mL versus plasma degarelix concentration; format: in vivo, human
Excerpt: Throughout the ongoing degarelix development program, population pharmacokinetic/pharmacodynamic (PK/PD) modeling and simulations have been employed to get a better understanding of the PK and PD data, and the relationship between these and other parameters. […] Because of the variability in the population, it was considered that this median plasma concentration might not be sufficient to maintain long-term testosterone suppression in approximately 95% of the patients. It was therefore proposed that the dose administered should produce mean serum trough degarelix levels of >9 ng/ml or higher in the Phase 3 studies for the one-month dosing regimen program.
The relationship between proportion of patients castrated [(T)≦0.5 ng/mL] and degarelix concentration after day 28 is illustrated in FIG. 1. FIG. 1 is based on data from 1473 prostate cancer patients in clinical studies by dividing PK levels into intervals 0-1, 1-2, 2-3 ng/mL and so forth and plotting observed proportions against PK interval midpoints together with a smoothing line with 95% confidence interval (CI). Based on this information, approximately 97% of the patients are castrated provided that degarelix concentrations stay above a threshold value of 9-10 ng/mL.

PSA = assay: Clinical trial CS18: PSA change from baseline; format: in vivo, human
Description: PSA is a commonly used marker in the diagnosis of prostate cancer and has more recently also been used to monitor response to treatment as well as disease recurrence and progression (Fleming et al. (2006) Nat. Clin. Pract. Oncol. 3: 658-68; Lilja, et al. (2008) Nat. Rev. Cancer 8: 268-78). In general, higher levels of PSA are associated with more severe forms of prostate cancer, with metastatic stage prostate cancer being associated with the highest level of PSA (e.g., >50 ng/mL). Accordingly, rising PSA levels in patients undergoing prostate cancer treatment are associated with incomplete or failed efficacy of the treatment. Here, there were further reductions in PSA after Month 1 and the median reductions were sustained throughout the study period (median reductions of 96-97%).

serum testosterone [4] = assay: One-month dosing regimen clinical program: testosterone suppression to castrate level; format: in vivo, human; conditions: for testosterone response rate: Day 28 to Day 364
Description: Other studies establish that degarelix or pharmaceutically acceptable salt thereof at a dose of 240 mg (40 mg/mL) is an effective starting dose. […] With dosing at 0 months and an additional dosage at 1 month, it is believed that a steady state level is reached faster and this is (together with formulation, dose and concentration) a factor for consideration to obtain and maintain therapeutic levels in the patient. Use of a higher dose as the starting dose to have a ‘true’ 3 month depot is not feasible because of the combined requirements of a sufficient starting/loading phase release to allow buildup of degarelix plasma concentration; and at the same time sufficient long term release to achieve sufficiently high steady state concentration for 3 months. […] This is surprising given the high doses (and concentrations) of degarelix in the defined maintenance dose(s).

clinical = conditions: male, human, in vivo, sc
Description: as §1, §2, §3

[5] = human, in vivo, 80 mg

**Q.** Which “hepatotoxicity: impairment of liver function” value [1] does the source give for `CC(=O)N[C@H](Cc1ccc2ccccc2c1)C(=O)N[C@H](Cc1ccc(Cl)cc1)C(=O)N[C@H](Cc1cccnc1)C(=O)N[C@@H](CO)C(=O)N[C@@H](Cc1ccc(NC(=O)[C@@H]2CC(=O)NC(=O)N2)cc1)C(=O)N[C@H](Cc1ccc(NC(N)=O)cc1)C(=O)N[C@@H](CC(C)C)C(=O)N[C@@H](CCCCNC(C)C)C(=O)N1CCC[C@H]1C(=O)N[C@H](C)C(N)=O` [Degarelix, D-Alaninamide, N-acetyl-3-(2-naphthalenyl)-D-alanyl-4-chloro-D-phenylalanyl-3-(3-pyridinyl)-D-alanyl-L-seryl-4-[[[(4S)-hexahydro-2,6-dioxo-4-pyrimidinyl]carbonyl]amino]-L-phenylalanyl-4-[(aminocarbonyl)amino]-D-phenylalanyl-L leucyl-N6-(1-methylethyl)-L-lysyl-L-prolyl] (Ac-[d2Nal][dPhe(4-Cl)][d3Pal]S[Phe(4-NH2)](Dihydroorotyl(S))[dPhe(4-NHCONH2)]L[Lys(iPr)]P[dA]-NH2) here?
**A.** The value was “do not show any clinically significant impairment of liver function”.

**Q.** What about the immediate anaphylactic reactions [1] of the same compound?
**A.** The immediate anaphylactic reactions was “no immediate anaphylactic reactions reported”.

**Q.** What about the “incidence of any injection site reaction” value [1] of the same compound?
**A.** The value was 26%.

**Q.** And the “injection site reactions of mild intensity” value [1]?
**A.** The value was 11%.

**Q.** And the “injection site reactions of moderate intensity” value [1]?
**A.** The value was 11%.

**Q.** What about the “patients reporting severe injection site reactions” value [1] of the same compound?
**A.** The value was 5%.

**Q.** And the “estimated median degarelix trough concentration” value ([2]; 360 mg)?
**A.** The value was “above 9 ng/mL”.

**Q.** And the “estimated median degarelix trough concentration” value ([2]; 480 mg)?
**A.** The value was “above 9 ng/mL”.

**Q.** And the “patients achieving serum testosterone ≦0.5 ng/mL” value (serum testosterone [3]; Day 28, median trough plasma degarelix 7.34 ng/mL)?
**A.** The value was 96%.

**Q.** And the “patients having testosterone ≦0.5 ng/mL” value (serum testosterone [3]; Day 84, median plasma degarelix 4.54 ng/mL)?
**A.** Its value is 83%.

**Q.** What about the “PSA, Median % Change from Baseline” value (PSA; 360/60 mg, Day 28) of the same compound?
**A.** Its value is −83.8%.

**Q.** What about the “PSA, Median % Change from Baseline” value (PSA; 360/60 mg, Day 56) of the same compound?
**A.** The value was −93.8%.

**Q.** And the “PSA, Median % Change from Baseline” value (PSA; 360/60 mg, Day 84)?
**A.** Its value is −95.0%.

**Q.** What about the “PSA, Median % Change from Baseline” value (PSA; 360/60 mg, Day 112) of the same compound?
**A.** The value was −95.5%.

**Q.** What about the “PSA, Median % Change from Baseline” value (PSA; 360/60 mg, Day 140) of the same compound?
**A.** Its value is −96.2%.

**Q.** And the “PSA, Median % Change from Baseline” value (PSA; 360/60 mg, Day 168)?
**A.** Its value is −96.8%.

**Q.** What about the “PSA, Median % Change from Baseline” value (PSA; 360/60 mg, Day 196) of the same compound?
**A.** The value was −95.9%.

**Q.** And the “PSA, Median % Change from Baseline” value (PSA; 360/60 mg, Day 224)?
**A.** The value was −96.4%.

**Q.** What about the “PSA, Median % Change from Baseline” value (PSA; 360/60 mg, Day 252) of the same compound?
**A.** The value was −97.0%.

**Q.** What about the “PSA, Median % Change from Baseline” value (PSA; 360/60 mg, Day 280) of the same compound?
**A.** The value was −97.0%.

**Q.** What about the “PSA, Median % Change from Baseline” value (PSA; 360/60 mg, Day 308) of the same compound?
**A.** The value was −97.3%.

**Q.** And the “PSA, Median % Change from Baseline” value (PSA; 360/60 mg, Day 336)?
**A.** Its value is −97.5%.

**Q.** What about the “PSA, Median % Change from Baseline” value (PSA; 360/60 mg, Day 364) of the same compound?
**A.** Its value is −96.9%.

**Q.** And the “PSA, Median % Change from Baseline” value (PSA; 360/60 mg, Last visit)?
**A.** The value was −96.9%.

**Q.** And the “PSA, Median % Change from Baseline” value (PSA; 480/60 mg, Day 28)?
**A.** The value was −78.9%.

**Q.** What about the “PSA, Median % Change from Baseline” value (PSA; 480/60 mg, Day 56) of the same compound?
**A.** The value was −90.9%.

**Q.** And the “PSA, Median % Change from Baseline” value (PSA; 480/60 mg, Day 84)?
**A.** The value was −93.4%.

**Q.** And the “PSA, Median % Change from Baseline” value (PSA; 480/60 mg, Day 112)?
**A.** Its value is −95.3%.

**Q.** What about the “PSA, Median % Change from Baseline” value (PSA; 480/60 mg, Day 140) of the same compound?
**A.** The value was −95.5%.

**Q.** What about the “PSA, Median % Change from Baseline” value (PSA; 480/60 mg, Day 168) of the same compound?
**A.** Its value is −96.5%.

**Q.** And the “PSA, Median % Change from Baseline” value (PSA; 480/60 mg, Day 196)?
**A.** The value was −96.2%.

**Q.** What about the “PSA, Median % Change from Baseline” value (PSA; 480/60 mg, Day 224) of the same compound?
**A.** The value was −96.6%.

**Q.** And the “PSA, Median % Change from Baseline” value (PSA; 480/60 mg, Day 252)?
**A.** Its value is −96.9%.

**Q.** What about the “PSA, Median % Change from Baseline” value (PSA; 480/60 mg, Day 280) of the same compound?
**A.** The value was −96.5%.

**Q.** And the “PSA, Median % Change from Baseline” value (PSA; 480/60 mg, Day 308)?
**A.** Its value is −97.0%.

**Q.** What about the “PSA, Median % Change from Baseline” value (PSA; 480/60 mg, Day 336) of the same compound?
**A.** The value was −97.4%.

**Q.** And the “PSA, Median % Change from Baseline” value (PSA; 480/60 mg, Day 364)?
**A.** Its value is −97.1%.

**Q.** What about the “PSA, Median % Change from Baseline” value (PSA; 480/60 mg, Last visit) of the same compound?
**A.** The value was −96.5%.

**Q.** And the “median reductions in PSA sustained throughout the study period” value (PSA; CS18, after Month 1)?
**A.** The value was 96-97%.

**Q.** What about the “PSA, Median % Change from Baseline” value (PSA; Total (both arms), Day 28) of the same compound?
**A.** The value was −81.2%.

**Q.** And the “PSA, Median % Change from Baseline” value (PSA; Total (both arms), Day 56)?
**A.** The value was −92.9%.

**Q.** And the “PSA, Median % Change from Baseline” value (PSA; Total (both arms), Day 84)?
**A.** Its value is −94.5%.

**Q.** What about the “PSA, Median % Change from Baseline” value (PSA; Total (both arms), Day 112) of the same compound?
**A.** Its value is −95.4%.

**Q.** And the “PSA, Median % Change from Baseline” value (PSA; Total (both arms), Day 140)?
**A.** The value was −95.9%.

**Q.** And the “PSA, Median % Change from Baseline” value (PSA; Total (both arms), Day 168)?
**A.** Its value is −96.6%.

**Q.** And the “PSA, Median % Change from Baseline” value (PSA; Total (both arms), Day 196)?
**A.** Its value is −96.2%.

**Q.** And the “PSA, Median % Change from Baseline” value (PSA; Total (both arms), Day 224)?
**A.** The value was −96.5%.

**Q.** What about the “PSA, Median % Change from Baseline” value (PSA; Total (both arms), Day 252) of the same compound?
**A.** The value was −96.9%.

**Q.** And the “PSA, Median % Change from Baseline” value (PSA; Total (both arms), Day 280)?
**A.** The value was −97.0%.

**Q.** And the “PSA, Median % Change from Baseline” value (PSA; Total (both arms), Day 308)?
**A.** The value was −97.2%.

**Q.** What about the “PSA, Median % Change from Baseline” value (PSA; Total (both arms), Day 336) of the same compound?
**A.** The value was −97.4%.

**Q.** And the “PSA, Median % Change from Baseline” value (PSA; Total (both arms), Day 364)?
**A.** Its value is −96.9%.

**Q.** What about the “PSA, Median % Change from Baseline” value (PSA; Total (both arms), Last visit) of the same compound?
**A.** Its value is −96.8%.

**Q.** And the “sustained testosterone suppression for 3 months following an injection” value (serum testosterone [4]; doses of 240 mg, 160 mg or 80 mg)?
**A.** The value was “failed to sustain testosterone suppression for 3 months; also recorded: none of the doses tested in the one-month dosing regimen program could sustain testosterone suppression for 3 months”.

**Q.** And the testosterone response rate (serum testosterone [4]; monthly maintenance 80 mg (20 mg/mL))?
**A.** Its testosterone response rate is 98%.

**Q.** And the testosterone response rate (serum testosterone [4]; monthly maintenance 160 mg (40 mg/mL))?
**A.** The testosterone response rate was 100%.

**Q.** What about the “patients with testosterone suppressed to castrate level (T≦0.5 ng/mL)” value (serum testosterone [4]; starting dose 240 mg (40 mg/mL), first 28 days) of the same compound?
**A.** Its value is 95%.

**Q.** And the level at 1 year (clinical; 360 mg)?
**A.** Its level at 1 year is ~0.01 µg/mL.

**Q.** What about the level at 1 year (clinical; 480 mg) of the same compound?
**A.** Its level at 1 year is ~0.013 µg/mL.

**Q.** What about the “mean trough levels of degarelix” value [5] of the same compound?
**A.** Its value is “approximately 12 ng/mL”.
